Measurements published in US9382254B2, “Compounds and pharmaceutical compositions thereof for the treatment of cystic fibrosis” (Galapagos NV, priority 2013, dated 2016).

What was measured:
Assay type in all cases: cell-based
CFTR ΔF508 mutant [1] = target: T1, CFTR ΔF508 mutant (Homo sapiens, UniProt P13569, DEL508-508); assay: YFP-halide influx assay for the CFTR-ΔF508 mutation, PBS buffer (96 well); conditions: CFBE41o- cells, forskolin 10.67 μM
T1 construct: expressed in transfected cells; host or cells: CFBE41o- (adenoviral transduction)
Text: The YFP halide influx assay measures the functionality of the cystic fibrosis Transmembrane Conductance regulator (CFTR) channels in the cystic fibrosis bronchial epithelium cell line CFBE41o-. The assay is used to evaluate the capacity of compounds to increase the open probability of existing CFTR channels in the membrane. It makes use of the observation that the yellow fluorescent protein (YFP) variant YFP H148Q, I152L has its fluorescence substantially quenched by halide ions like Cl^− and I^−. (Galietta, Haggie, & Verkman, 2001) (Nagai, et al., 2002)
For this purpose, CFBE41o-cells are seeded in 96 well plates (6000 CFBE cells/well). One day after seeding, the CFBE cells are transduced with adenoviral vectors that direct the expression of the CFTR ΔF508 mutant and of the YFP reporter. Cells are incubated at 27° C., 5% CO2 for 24 hours so as to allow for the proper folding and migration to the membrane of the CFTR channel or treated with a CFTR modulator during 24 hours at 37° C.
The I^− induced quenching of fluorescence is recorded immediately after injection of I^− for 7 seconds. The capacity of a compound to increase the channel opening is directly correlated with the decrease in fluorescence, and is expressed as (1-(fluorescence after 7 seconds (F)/fluorescence before injection (F0))) and an EC50 can be derived from a (1-F/F0) vs compound concentration plot.

CFTR ΔF508 mutant [2] = target: T1, CFTR ΔF508 mutant; assay: YFP-halide influx assay for the CFTR-ΔF508 mutation (384 well, FDSS/μCell); conditions: CFBE41o- cells, CFTR-ΔF508, 1×D-PBS, fluorescence after 36 seconds
Method in brief: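 Potentiator read-out as 1−F/F0, F taken 36 s after iodide addition, EC50 fitted against compound concentration. Cells: CFBE41o- expressing ΔF508 CFTR plus halide-sensitive YFP via adenovirus, rescued by 27 °C for 24 h or 24 h modulator at 37 °C.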

CFTR G551D mutant = target: T2, CFTR G551D mutant (Homo sapiens, UniProt P13569, G551D); assay: YFP-halide influx assay for the CFTR-G551D mutation; conditions: HEK293 cells, forskolin 10.67 μM
T2 construct: expressed in transfected cells; host or cells: HEK293 (reverse transfection with plasmid)
Method in brief: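 HEK293 cells reverse-transfected with CFTR G551D and YFP H148Q/I152L/F47L halide sensor, expressed 24 h at 37 °C. Iodide-induced fluorescence quench recorded 7 s after I− injection; response = 1−F/F0, with EC50 from plot against compound concentration.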

T2 sequence (P13569 whole entry G551D): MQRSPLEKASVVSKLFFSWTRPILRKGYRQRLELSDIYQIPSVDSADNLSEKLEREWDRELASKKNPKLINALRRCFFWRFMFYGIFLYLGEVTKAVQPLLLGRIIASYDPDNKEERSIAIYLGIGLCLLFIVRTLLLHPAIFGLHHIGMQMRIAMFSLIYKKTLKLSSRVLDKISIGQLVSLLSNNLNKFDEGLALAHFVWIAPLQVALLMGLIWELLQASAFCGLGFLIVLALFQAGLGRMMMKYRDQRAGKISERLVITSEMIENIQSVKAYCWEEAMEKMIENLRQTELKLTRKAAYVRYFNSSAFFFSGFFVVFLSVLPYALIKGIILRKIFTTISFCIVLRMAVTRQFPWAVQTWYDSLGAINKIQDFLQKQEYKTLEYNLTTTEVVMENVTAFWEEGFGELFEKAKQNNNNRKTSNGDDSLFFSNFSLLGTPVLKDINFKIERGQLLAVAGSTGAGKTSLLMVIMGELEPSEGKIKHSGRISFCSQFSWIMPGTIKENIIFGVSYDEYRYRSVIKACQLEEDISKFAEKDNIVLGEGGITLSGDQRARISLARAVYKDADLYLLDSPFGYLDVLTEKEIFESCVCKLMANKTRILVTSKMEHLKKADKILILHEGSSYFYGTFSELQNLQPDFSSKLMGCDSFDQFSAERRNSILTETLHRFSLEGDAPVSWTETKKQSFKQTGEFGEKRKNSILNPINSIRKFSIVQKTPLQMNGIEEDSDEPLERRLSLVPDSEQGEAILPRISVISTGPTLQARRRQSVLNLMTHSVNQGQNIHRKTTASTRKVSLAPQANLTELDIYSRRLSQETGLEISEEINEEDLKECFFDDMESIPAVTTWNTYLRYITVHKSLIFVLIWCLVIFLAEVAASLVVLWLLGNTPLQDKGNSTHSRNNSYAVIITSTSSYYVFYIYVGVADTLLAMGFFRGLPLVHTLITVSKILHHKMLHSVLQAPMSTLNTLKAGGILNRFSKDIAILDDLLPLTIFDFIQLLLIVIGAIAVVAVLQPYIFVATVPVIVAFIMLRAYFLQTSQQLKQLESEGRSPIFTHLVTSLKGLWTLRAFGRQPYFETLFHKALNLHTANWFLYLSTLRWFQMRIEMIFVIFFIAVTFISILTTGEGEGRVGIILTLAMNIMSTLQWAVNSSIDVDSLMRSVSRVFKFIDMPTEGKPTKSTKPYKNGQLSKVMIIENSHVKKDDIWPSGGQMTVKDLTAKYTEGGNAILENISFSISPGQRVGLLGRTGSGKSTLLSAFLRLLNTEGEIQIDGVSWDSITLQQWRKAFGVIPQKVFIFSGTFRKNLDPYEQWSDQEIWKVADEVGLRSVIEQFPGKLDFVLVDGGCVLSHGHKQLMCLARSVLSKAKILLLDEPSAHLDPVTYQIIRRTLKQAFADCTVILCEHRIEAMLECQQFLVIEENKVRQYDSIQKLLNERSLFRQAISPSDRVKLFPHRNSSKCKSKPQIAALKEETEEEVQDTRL
T1 sequence (P13569 with tags, fused parts or gaps DEL508-508): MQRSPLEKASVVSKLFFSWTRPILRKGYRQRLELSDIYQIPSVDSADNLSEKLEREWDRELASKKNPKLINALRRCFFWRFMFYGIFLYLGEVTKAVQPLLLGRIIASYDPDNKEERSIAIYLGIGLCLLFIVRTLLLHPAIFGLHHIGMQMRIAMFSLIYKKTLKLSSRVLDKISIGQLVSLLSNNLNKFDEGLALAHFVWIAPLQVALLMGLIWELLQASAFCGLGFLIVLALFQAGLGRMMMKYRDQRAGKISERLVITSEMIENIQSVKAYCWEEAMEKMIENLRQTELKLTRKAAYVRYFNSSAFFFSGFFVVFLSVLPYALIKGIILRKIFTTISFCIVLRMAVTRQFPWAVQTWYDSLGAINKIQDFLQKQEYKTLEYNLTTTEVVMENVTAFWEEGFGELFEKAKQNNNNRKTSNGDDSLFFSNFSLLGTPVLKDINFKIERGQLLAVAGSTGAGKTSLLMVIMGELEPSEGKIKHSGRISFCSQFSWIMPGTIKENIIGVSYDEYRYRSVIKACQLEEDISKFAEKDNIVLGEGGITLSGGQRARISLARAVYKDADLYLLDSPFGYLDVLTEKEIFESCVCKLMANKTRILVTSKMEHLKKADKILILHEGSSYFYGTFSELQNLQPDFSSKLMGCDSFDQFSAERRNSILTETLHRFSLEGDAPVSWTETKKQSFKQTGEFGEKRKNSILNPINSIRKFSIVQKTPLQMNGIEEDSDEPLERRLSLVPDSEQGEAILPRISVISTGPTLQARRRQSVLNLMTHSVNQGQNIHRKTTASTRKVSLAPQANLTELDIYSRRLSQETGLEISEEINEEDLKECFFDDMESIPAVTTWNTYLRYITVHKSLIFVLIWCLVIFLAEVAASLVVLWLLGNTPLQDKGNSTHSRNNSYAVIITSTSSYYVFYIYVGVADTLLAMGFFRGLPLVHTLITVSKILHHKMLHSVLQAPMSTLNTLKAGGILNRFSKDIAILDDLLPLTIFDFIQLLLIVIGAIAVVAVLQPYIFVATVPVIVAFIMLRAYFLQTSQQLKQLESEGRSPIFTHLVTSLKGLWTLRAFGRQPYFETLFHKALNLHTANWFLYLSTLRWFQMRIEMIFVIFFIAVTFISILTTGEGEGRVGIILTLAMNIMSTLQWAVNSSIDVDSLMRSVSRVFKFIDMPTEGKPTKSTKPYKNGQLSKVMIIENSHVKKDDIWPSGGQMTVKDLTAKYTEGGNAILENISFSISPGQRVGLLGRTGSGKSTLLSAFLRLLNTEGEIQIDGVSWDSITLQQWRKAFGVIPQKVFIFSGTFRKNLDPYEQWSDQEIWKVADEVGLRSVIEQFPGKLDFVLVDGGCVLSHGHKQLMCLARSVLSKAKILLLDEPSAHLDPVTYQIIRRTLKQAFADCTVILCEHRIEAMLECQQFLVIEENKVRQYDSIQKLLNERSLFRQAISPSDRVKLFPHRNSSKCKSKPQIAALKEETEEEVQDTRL

SMILES	EC50 (CFTR ΔF508 mutant [1]) [nM]	EC50 (CFTR ΔF508 mutant [2]) [nM]	EC50 (CFTR G551D mutant) [nM]
NC(=O)c1cc(S(=O)(=O)c2ccc(Cl)cc2)sc1NC(=O)C1(O)CC1 [Compound 225, 5-(4-chlorophenylsulfonyl)-2-(1-hydroxycyclopropanecarboxamido) thiophene-3-carboxamide]	36.2	26.5	295
NC(=O)c1cc(S(=O)(=O)c2cccc(F)c2)sc1NC(=O)C1(O)CC1 [Compound 227, 5-(3-fluorophenylsulfonyl)-2-(1-hydroxycyclopropanecarboxamido) thiophene-3-carboxamide]	41.5	39.3	472
CC(C)c1ccccc1S(=O)(=O)c1cc(C(N)=O)c(NC(=O)C2(O)CC2)s1 [Compound 228, 2-(1-hydroxycyclopropanecarboxamido)-5-(2-isopropylphenylsulfonyl) thiophene-3-carboxamide]	20.5	29	93
CN(Cc1ccc(F)cc1)S(=O)(=O)c1cc(C(N)=O)c(NC(=O)C2(O)CC2)s1 [Compound 231, 5-(N-(4-fluorobenzyl)-N-methylsulfamoyl)-2-(1-hydroxycyclopropanecarboxamido) thiophene-3-carboxamide]	26	31.8	676
CN(c1ccc(F)cc1)S(=O)(=O)c1cc(C(N)=O)c(NC(=O)C2(O)CC2)s1 [Compound 236, 5-(N-(4-fluorophenyl)-N-methylsulfamoyl)-2-(1-hydroxycyclopropanecarboxamido) thiophene-3-carboxamide]	46.4	25.2	6660
NC(=O)c1cc(S(=O)(=O)N2CCOc3ccccc32)sc1NC(=O)C1(O)CC1 [Compound 242, 5-(2H-benzo[b][1,4]oxazin-4(3H)-ylsulfonyl)-2-(1-hydroxycyclopropanecarboxamido) thiophene-3-carboxamide]	17.3	9.6	163
COc1ccc(S(=O)(=O)c2cc(C(N)=O)c(NC(=O)C3(O)CC3)s2)cc1 [Compound 245, 2-(1-hydroxycyclopropanecarboxamido)-5-(4-methoxyphenylsulfonyl) thiophene-3-carboxamide]	60.3	113	621
COc1ccc(OC)c(S(=O)(=O)c2cc(C(N)=O)c(NC(=O)C3(O)CC3)s2)c1 [Compound 246, 5-(2,5-dimethoxyphenylsulfonyl)-2-(1-hydroxycyclopropanecarboxamido) thiophene-3-carboxamide]	78.5	75.1	627
NC(=O)c1cc(S(=O)(=O)c2c(Cl)cccc2Cl)sc1NC(=O)C1(O)CC1 [Compound 247, 5-(2,6-dichlorophenylsulfonyl)-2-(1-hydroxycyclopropanecarboxamido) thiophene-3-carboxamide]	10.8	18.5	113
CC(O)C(=O)Nc1sc(S(=O)(=O)c2ccc(F)cc2)cc1C(N)=O (centres unmarked) [Compound 248, 5-(4-fluorophenylsulfonyl)-2-(2-hydroxypropanamido) thiophene-3-carboxamide]	85.8	70.1	1390
Cc1cccc(C)c1S(=O)(=O)c1cc(C(N)=O)c(NC(=O)C2(O)CC2)s1 [Compound 251, 5-(2,6-dimethylphenylsulfonyl)-2-(1-hydroxycyclopropanecarboxamido) thiophene-3-carboxamide]	20.8	47.2	1250
CC(C)(CO)C(=O)Nc1sc(S(=O)(=O)c2ccc(F)cc2)cc1C(N)=O [Compound 253, 5-(4-fluorophenylsulfonyl)-2-(3-hydroxy-2,2-dimethylpropanamido) thiophene-3-carboxamide]	73	50.8	3330
NC(=O)c1cc(S(=O)(=O)c2ccc(F)cc2F)sc1NC(=O)C1(O)CC1 [Compound 256, 5-(2,4-difluorophenylsulfonyl)-2-(1-hydroxycyclopropanecarboxamido) thiophene-3-carboxamide]	26.2	23.1	1770
NC(=O)c1cc(S(=O)(=O)c2ccccc2C(F)(F)F)sc1NC(=O)C1(O)CC1 [Compound 257, 2-(1-hydroxycyclopropanecarboxamido)-5-(2-(trifluoromethyl)phenylsulfonyl) thiophene-3-carboxamide]	16.3	26.1	333
CC1CN(S(=O)(=O)c2cc(C(N)=O)c(NC(=O)c3ccccc3C(F)(F)F)s2)C(C)(C)CO1 (centres unmarked) [Compound 263, 2-(2-(trifluoromethyl)benzamido)-5-(2,5,5-trimethylmorpholinosulfonyl) thiophene-3-carboxamide]	81.1	148	3330
NC(=O)c1cc(S(=O)(=O)c2ccc(F)cc2Br)sc1NC(=O)C1(O)CC1 [Compound 264, 5-(2-bromo-4-fluorophenylsulfonyl)-2-(1-hydroxycyclopropanecarboxamido) thiophene-3-carboxamide]	30.1	19.4	1020
CC(C)Oc1cccc(S(=O)(=O)c2cc(C(N)=O)c(NC(=O)C(C)(C)O)s2)c1 [Compound 265, 2-(2-hydroxy-2-methylpropanamido)-5-(3-isopropoxyphenylsulfonyl) thiophene-3-carboxamide]	42.2	91.7	2000
CC(C)(O)C(=O)Nc1sc(S(=O)(=O)c2cccc(OC(F)(F)F)c2)cc1C(N)=O [Compound 269, 2-(2-hydroxy-2-methylpropanamido)-5-(3-(trifluoromethoxy)phenylsulfonyl) thiophene-3-carboxamide]	33	10.1	935
NC(=O)c1cc(S(=O)(=O)c2ccc(F)cc2)sc1NC(=O)C1CCCC1O (centres unmarked) [Compound 272, 5-(4-fluorophenylsulfonyl)-2-(2-hydroxycyclopentanecarboxamido) thiophene-3-carboxamide]	48.9	102	771
CC(CO)C(=O)Nc1sc(S(=O)(=O)c2ccc(F)cc2)cc1C(N)=O (centres unmarked) [Compound 273, 5-(4-fluorophenylsulfonyl)-2-(3-hydroxy-2-methylpropanamido) thiophene-3-carboxamide]	111	148	3080
CC(C)Oc1ccc(S(=O)(=O)c2cc(C(N)=O)c(NC(=O)C(C)(C)O)s2)cc1 [Compound 279, 2-(2-hydroxy-2-methylpropanamido)-5-(4-isopropoxyphenylsulfonyl) thiophene-3-carboxamide]	55.5	116	614
NC(=O)c1cc(S(=O)(=O)c2ccc(F)cc2)sc1NC(=O)C1CCCCC1O (centres unmarked) [Compound 280, 5-(4-fluorophenylsulfonyl)-2-(2-hydroxycyclohexanecarboxamido) thiophene-3-carboxamide]	28	117	1660
CC(C)Oc1cc(F)ccc1S(=O)(=O)c1cc(C(N)=O)c(NC(=O)C(C)(C)O)s1 [Compound 281, 5-(4-fluoro-2-isopropoxyphenylsulfonyl)-2-(2-hydroxy-2-methylpropanamido) thiophene-3-carboxamide]	41.1	136	1540
CC(C)(O)C(=O)Nc1sc(S(=O)(=O)c2ccc(F)cc2OC(F)F)cc1C(N)=O [Compound 283, 5-(2-(difluoromethoxy)-4-fluorophenylsulfonyl)-2-(2-hydroxy-2-methylpropanamido) thiophene-3-carboxamide]	47.7	69.6	564
COc1ccc(S(=O)(=O)c2cc(C(N)=O)c(NC(=O)C(C)(C)O)s2)c(OC(F)F)c1 [Compound 284, 5-(2-(difluoromethoxy)-4-methoxyphenylsulfonyl)-2-(2-hydroxy-2-methylpropanamido) thiophene-3-carboxamide]	51	85.2	793
CC1(C)CN(S(=O)(=O)c2cc(C(N)=O)c(NC(=O)C(C)(C)O)s2)C1 [Compound 309, 5-(3,3-Dimethyl-azetidine-1-sulfonyl)-2-(2-hydroxy-2-methyl-propionylamino)-thiophene-3-carboxylic acid amide]	115		2860
